Where two headings read alike, the source gives them in different places.
How the values were obtained:
134 cancer cell lines = test: Cell viability assay (ATPlite, 72 hours), IC50 on cancer cell line panel
[1] = biological target: T1, panel of 255 wild-type kinases (Homo sapiens, UniProt P15735); conditions: kinase PHKG2; 1 µmol/L single concentration; ref DOI: 10.1371/journal.pone.0092146; cited from earlier work
T1 sequence (P15735 1-406): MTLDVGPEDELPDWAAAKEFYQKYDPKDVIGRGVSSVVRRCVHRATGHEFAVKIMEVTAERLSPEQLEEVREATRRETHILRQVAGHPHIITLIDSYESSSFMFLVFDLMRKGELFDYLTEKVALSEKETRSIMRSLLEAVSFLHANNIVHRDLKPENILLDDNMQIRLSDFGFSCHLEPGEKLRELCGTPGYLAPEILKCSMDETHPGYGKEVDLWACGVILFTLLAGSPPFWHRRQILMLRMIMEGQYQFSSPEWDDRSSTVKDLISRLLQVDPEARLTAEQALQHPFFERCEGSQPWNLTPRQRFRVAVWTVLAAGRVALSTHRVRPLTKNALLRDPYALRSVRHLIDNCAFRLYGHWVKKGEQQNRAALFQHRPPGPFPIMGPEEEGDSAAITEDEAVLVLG

Question: Which IC50 (134 cancer cell lines; Homo sapiens, MV4-11, read-out: IC50 in cell proliferation assay, MV4-11 cell line (FLT3 ITD)) does the source give for CC(C)(C)c1nc(-c2cccc(NS(=O)(=O)c3c(F)cccc3F)c2F)c(-c2ccnc(N)n2)s1 [dabrafenib] here?
Answer: 8.02 µM

Question: And the IC50 (134 cancer cell lines; Homo sapiens, MeWo, read-out: IC50 in cell proliferation assay, MeWo cell line)?
Answer: 1.02 µM

Question: And the IC50 (134 cancer cell lines; Homo sapiens, NCCIT, read-out: IC50 in cell proliferation assay, NCC-IT cell line)?
Answer: 1.16 µM

Question: And the IC50 (134 cancer cell lines; Homo sapiens, NCI-H82, read-out: IC50 in cell proliferation assay, cell line NCI-H82)?
Answer: 1.12 µM

Question: What about the IC50 (134 cancer cell lines; Homo sapiens, NCI-H460, read-out: IC50 in cell proliferation assay, NCI-H460 cell line) of the same molecule?
Answer: 1.15 µM

Question: What about the IC50 (134 cancer cell lines; Homo sapiens, NCI-H661, read-out: IC50 in cell proliferation assay, NCI-H661 cell line) of the same molecule?
Answer: > 10 µM

Question: And the IC50 (134 cancer cell lines; Homo sapiens, NCI-H716, read-out: IC50 in cell proliferation assay, cell line NCI-H716 (FGFR2-COL14A1))?
Answer: 1.17 µM

Question: What about the IC50 (134 cancer cell lines; Homo sapiens, NCI-H1650, read-out: IC50 in cell proliferation assay, NCI-H1650 cell line (EGFR exon19del)) of the same molecule?
Answer: > 10 µM

Question: What about the IC50 (134 cancer cell lines; Homo sapiens, NCI-H1975, read-out: IC50 in cell proliferation assay, NCI-H1975 cell line (EGFR p.L858R + p.T790M)) of the same molecule?
Answer: 1.42 µM

Question: What about the IC50 (134 cancer cell lines; Homo sapiens, NCI-H2228, read-out: IC50 in cell proliferation assay, NCI-H2228 cell line (EML4-ALK)) of the same molecule?
Answer: 2.2 µM

Question: And the IC50 (134 cancer cell lines; Homo sapiens, OVCAR-3, read-out: IC50 in cell proliferation assay, cell line OVCAR-3)?
Answer: 1.04 µM

Question: What about the IC50 (134 cancer cell lines; Homo sapiens, PFSK-1, read-out: IC50 in cell proliferation assay, cell line PFSK-1) of the same molecule?
Answer: > 10 µM

Question: What about the IC50 (134 cancer cell lines; Homo sapiens, RL95-2, read-out: IC50 in cell proliferation assay, cell line RL95-2 (EGFR p.A289V)) of the same molecule?
Answer: 2.99 µM

Question: And the IC50 (134 cancer cell lines; Homo sapiens, RPMI-7951, read-out: IC50 in cell proliferation assay, cell line RPMI-7951 (BRAF p.V600E))?
Answer: 0.043 µM

Question: And the IC50 (134 cancer cell lines; Homo sapiens, RS4-11, read-out: IC50 in cell proliferation assay, cell line RS4;11)?
Answer: 1.21 µM

Question: And the IC50 (134 cancer cell lines; Homo sapiens, Rec1, read-out: IC50 in cell proliferation assay, cell line REC-1)?
Answer: 0.975 µM

Question: What about the IC50 (134 cancer cell lines; Homo sapiens, SHP77, read-out: IC50 in cell proliferation assay, cell line SHP-77) of the same molecule?
Answer: > 10 µM

Question: What about the IC50 (134 cancer cell lines; Homo sapiens, SK-BR-3, read-out: IC50 in cell proliferation assay, cell line SK-BR-3 (ERBB2 amplification)) of the same molecule?
Answer: 1.57 µM

Question: What about the IC50 (134 cancer cell lines; Homo sapiens, SK-N-AS, read-out: IC50 in cell proliferation assay, cell line SK-N-AS) of the same molecule?
Answer: 3.02 µM

Question: And the IC50 (134 cancer cell lines; Homo sapiens, SK-N-FI, read-out: IC50 in cell proliferation assay, cell line SK-N-FI)?
Answer: > 10 µM

Question: What about the IC50 (134 cancer cell lines; Homo sapiens, SK-N-MC, read-out: IC50 in cell proliferation assay, cell line SK-N-MC) of the same molecule?
Answer: 1.78 µM

Question: And the IC50 (134 cancer cell lines; Homo sapiens, SK-N-SH, read-out: IC50 in cell proliferation assay, cell line SK-N-SH (ALK p.F1174L))?
Answer: 2.14 µM

Question: What about the IC50 (134 cancer cell lines; Homo sapiens, SNU-5, read-out: IC50 in cell proliferation assay, cell line SNU-5 (MET amplification)) of the same molecule?
Answer: > 10 µM

Question: And the IC50 (134 cancer cell lines; Homo sapiens, SNU-16, read-out: IC50 in cell proliferation assay, cell line SNU-16 (FGFR2 amplification))?
Answer: > 10 µM

Question: And the IC50 (134 cancer cell lines; Homo sapiens, SNU-C2B, read-out: IC50 in cell proliferation assay, cell line SNU-C2B (EGFR p.R165Q))?
Answer: > 10 µM

Question: And the IC50 (134 cancer cell lines; Homo sapiens, SU-DHL-1, read-out: IC50 in cell proliferation assay, cell line SU-DHL-1 (NPM1-ALK))?
Answer: > 10 µM

Question: What about the IC50 (134 cancer cell lines; Homo sapiens, SU-DHL-6, read-out: IC50 in cell proliferation assay, cell line SU-DHL-6) of the same molecule?
Answer: 2.61 µM

Question: What about the IC50 (134 cancer cell lines; Homo sapiens, SUP-T1, read-out: IC50 in cell proliferation assay, cell line SUP-T1) of the same molecule?
Answer: > 10 µM

Question: What about the IC50 (134 cancer cell lines; Homo sapiens, SW48, read-out: IC50 in cell proliferation assay, cell line SW48 (EGFR p.G719S)) of the same molecule?
Answer: 3.01 µM

Question: And the IC50 (134 cancer cell lines; Homo sapiens, SW480, read-out: IC50 in cell proliferation assay, cell line SW480)?
Answer: 2.99 µM

Question: What about the IC50 (134 cancer cell lines; Homo sapiens, SW626, read-out: IC50 in cell proliferation assay, cell line SW626) of the same molecule?
Answer: > 10 µM

Question: And the IC50 (134 cancer cell lines; Homo sapiens, SW780, read-out: IC50 in cell proliferation assay, cell line SW780 (FGFR3-BAIAP2L1))?
Answer: > 10 µM

Question: And the IC50 (134 cancer cell lines; Homo sapiens, SW837, read-out: IC50 in cell proliferation assay, cell line SW837)?
Answer: > 10 µM

Question: What about the IC50 (134 cancer cell lines; Homo sapiens, SW872, read-out: IC50 in cell proliferation assay, cell line SW872 (BRAF p.V600E)) of the same molecule?
Answer: 0.025 µM

Question: What about the IC50 (134 cancer cell lines; Homo sapiens, SW900, read-out: IC50 in cell proliferation assay, cell line SW900) of the same molecule?
Answer: 1.12 µM

Question: And the IC50 (134 cancer cell lines; Homo sapiens, SW948, read-out: IC50 in cell proliferation assay, cell line SW948)?
Answer: 2.72 µM

Question: And the IC50 (134 cancer cell lines; Homo sapiens, SW982, read-out: IC50 in cell proliferation assay, cell line SW982 (BRAF p.V600E))?
Answer: 1.16 µM

Question: What about the IC50 (134 cancer cell lines; Homo sapiens, SW-620, read-out: IC50 in cell proliferation assay, cell line SW620) of the same molecule?
Answer: > 10 µM

Question: And the IC50 (134 cancer cell lines; Homo sapiens, T98G, read-out: IC50 in cell proliferation assay, cell line T98G)?
Answer: > 10 µM

Question: And the IC50 (134 cancer cell lines; Homo sapiens, TCC-SUP, read-out: IC50 in cell proliferation assay, cell line TCCSUP)?
Answer: 2.08 µM

Question: What about the IC50 (134 cancer cell lines; Homo sapiens, THP-1, read-out: IC50 in cell proliferation assay, cell line THP-1) of the same molecule?
Answer: > 10 µM

Question: And the IC50 (134 cancer cell lines; Homo sapiens, U2OS, read-out: IC50 in cell proliferation assay, cell line U2OS)?
Answer: > 10 µM

Question: What about the IC50 (134 cancer cell lines; Homo sapiens, U-87 MG, read-out: IC50 in cell proliferation assay, cell line U-87MG ATCC) of the same molecule?
Answer: 3.6 µM

Question: What about the IC50 (134 cancer cell lines; Homo sapiens, U-118-MG, read-out: IC50 in cell proliferation assay, cell line U-118MG) of the same molecule?
Answer: 2.21 µM

Question: And the IC50 (134 cancer cell lines; Homo sapiens, UMUC3, read-out: IC50 in cell proliferation assay, cell line UM-UC-3)?
Answer: 1.95 µM

Question: And the IC50 (134 cancer cell lines; Hs766T, read-out: IC50 in cell proliferation assay, Hs 766T cell line)?
Answer: > 10 µM

Question: And the IC50 (134 cancer cell lines; L-82, read-out: IC50 in cell proliferation assay, L-82 cell line (NPM1-ALK))?
Answer: > 10 µM

Question: What about the IC50 (134 cancer cell lines; Rh30, read-out: IC50 in cell proliferation assay, cell line Rh30) of the same molecule?
Answer: > 10 µM

Question: And the IC50 (134 cancer cell lines; read-out: IC50 in cell proliferation assay, 11-18 cell line (EGFR p.L858R))?
Answer: > 10 µM

Question: And the IC50 (134 cancer cell lines; read-out: IC50 in cell proliferation assay, Hs 852.T cell line)?
Answer: 1.42 µM

Question: And the IC50 (134 cancer cell lines; read-out: IC50 in cell proliferation assay, JAR cell line)?
Answer: 1.53 µM

Question: What about the IC50 (134 cancer cell lines; read-out: IC50 in cell proliferation assay, cell line 5637) of the same molecule?
Answer: 0.562 µM

Question: And the IC50 (134 cancer cell lines; read-out: IC50 in cell proliferation assay, cell line A-388)?
Answer: > 10 µM

Question: What about the IC50 (134 cancer cell lines; read-out: IC50 in cell proliferation assay, cell line DB) of the same molecule?
Answer: 1.72 µM

Question: What about the IC50 (134 cancer cell lines; read-out: IC50 in cell proliferation assay, cell line DEL (NPM1-ALK)) of the same molecule?
Answer: > 10 µM

Question: And the IC50 (134 cancer cell lines; read-out: IC50 in cell proliferation assay, cell line ES-2 (BRAF p.V600E))?
Answer: 0.13 µM

Question: And the IC50 (134 cancer cell lines; read-out: IC50 in cell proliferation assay, cell line PA-1)?
Answer: 1.71 µM

Question: And the IC50 (134 cancer cell lines; read-out: IC50 in cell proliferation assay, cell line PC-3)?
Answer: > 10 µM

Question: What about the IC50 (134 cancer cell lines; read-out: IC50 in cell proliferation assay, cell line RD) of the same molecule?
Answer: 1.79 µM

Question: What about the IC50 (134 cancer cell lines; read-out: IC50 in cell proliferation assay, cell line RKO (BRAF p.V600E)) of the same molecule?
Answer: 0.011 µM

Question: And the IC50 (134 cancer cell lines; read-out: IC50 in cell proliferation assay, cell line RL)?
Answer: > 10 µM

Question: What about the IC50 (134 cancer cell lines; read-out: IC50 in cell proliferation assay, cell line RT-4 (FGFR3-TACC3)) of the same molecule?
Answer: > 10 µM

Question: What about the IC50 (134 cancer cell lines; read-out: IC50 in cell proliferation assay, cell line SR (NPM1-ALK)) of the same molecule?
Answer: 1.76 µM

Question: What about the IC50 (134 cancer cell lines; read-out: IC50 in cell proliferation assay, cell line T24) of the same molecule?
Answer: 1.17 µM

Question: What about the IC50 (134 cancer cell lines; read-out: IC50 in cell proliferation assay, cell line TT (RET p.C634W)) of the same molecule?
Answer: > 10 µM

Question: And the IC50 (134 cancer cell lines; read-out: IC50 in cell proliferation assay, cell line VA-ES-BJ)?
Answer: 2.1 µM

Question: What about the “%-inhibition at 1 µmol/L, PHKG2” value [1] of the same molecule?
Answer: 2%

From paper PMC9516332 (Frontiers in Oncology, 2022)
